We go through one compound from US20210393538A1, “SILICA-BASED DRUG NANOCAPSULES” (priority 2018, published 2021).

Where a name gives a salt, the structure may show the parent alone.

For orientation: IC50 means the concentration that inhibits the measured activity by half.

The nature of series [1]: Toxicity studies. The class given is in vivo, balb/c mice. As to the method:
Small animal models. For imaging and therapy studies, a U87MG subcutaneous mouse model was used. […] For toxicity studies, normal 5-6 week old balb/c mice (Envigo laboratories). All the animal studied were performed according to a protocol approved by the Institutional Animal Care and Use Committee (IACUC) of University of Georgia. Toxicity studies. Fifteen normal balb/c mice were randomly divided into 5 groups and received regimens specified in the in vivo therapy study section. The body weight and anal temperature of each mouse were measured daily at the same time (starting from 6 days before injection through Day 6). On Day 7, all mice were euthanized and the whole blood was collected. Part of the blood samples were used for a complete blood count (CBC) test. […] All tests were conducted by following the vendors' protocols. CRP and TNF-α kits were purchased from RayBiotech, ALT (MAK055) and AST (MAK052) kits from Sigma-Aldrich, and BUN from Arbor Assays. Each assay was repeated at least twice.

The subject of series [2] is U87MG tumors. The series can be described thus: In vivo therapy study. Set-up: species or system nude mice. As to the method:
Small animal models. For imaging and therapy studies, a U87MG subcutaneous mouse model was used. The animal model was established by subcutaneously inoculating 1 million U87MG cells onto the right hind leg or the right flank (for PET imaging only) of a 5-6 week old athymic female nude mice (Harlan). For toxicity studies, normal 5-6 week old balb/c mice (Envigo laboratories). All the animal studied were performed according to a protocol approved by the Institutional Animal Care and Use Committee (IACUC) of University of Georgia.
In vivo therapy study. Treatments started when tumor size reached 100-150 mm^3. 25 mice were randomly divided into 5 groups and were i.v. injected with PBS, free Dox, DSN-52 in PBS, MF cells, and DSN-MF cells on Day 0. Dox, DSN-52, and DSN-MF were injected at 3 mg Dox kg^−1, and 4 million cells were injected into the mice in MF and DSN-MF groups. The body weight and tumor volume of each mouse were measured every other day for 2 weeks. The tumor volume was calculated by the following equation: tumor volume=0.5×length×(width)^2, where length≥width. Mice were euthanized once the tumor volume was above 1,700 mm^3.

In series [3] the test system is RAW264.7 cells. The series can be described thus: Macrophage viability (MTT, Live/Dead Calcein AM/EthD-III). The conditions noted are these: Mus musculus, RAW264.7 cells incubated 24 h. The class given is cell-based. The method, then:
In vitro cellular loading studies. RAW264.7 (murine macrophages) and U87MG (human glioblastoma) were purchased from ATCC. RAW264.7 cells were cultured in RPMI1640 medium (Corning, USA) supplemented with 10% FBS (Corning, USA) and 1% penicillin-streptomycin (MediaTech, USA). During the nanoparticle loading stage, FBS-free RPMI1640 medium was used for culturing. U87MG cells were grown in DMEM medium (Corning, USA) supplemented with 10% FBS, 1% non-essential amino acids, and 1% penicillin-streptomycin. These two cell lines were incubated under 37° C. and 5% CO2 in a humid chamber. […] To determine the amount of Dox loaded into cells, DSN-laden cells were counted and then lysed by sonication in PBS (pH 5.0). The amounts of released Dox was measured by spectroscopic analysis. The Dox content on a per cell basis was calculated compared with macrophages without nanoparticle loading. […] To evaluate the impact of loaded DSNs on macrophages, the viability change was first assessed at different time points post nanoparticle loading by 3-(4,5-dimethythiazon-2-yl)-2,5-diphenyl tetrazolium bromide (MTT) assay or Live/Dead Cytotoxicity assay and the results were compared with normal macrophages. […]

Consider `COc1cccc2c1C(=O)c1c(O)c3c(c(O)c1C2=O)C[C@@](O)(C(=O)CO)C[C@@H]3O[C@H]1C[C@H](N)[C@H](O)[C@H](C)O1` [Dox, doxorubicin hydrochloride salt], for which, in series [1] (CBC, Day 7), the Bands was found to be 12%, the HCT stood at 48.9%, the HGB amounted to 44.0 g/dL and the Lymphs turned out to be 82%. Besides, in series [1] (CBC, Day 7), the MCH is reported as 31.6 pg, the MCHC is 62 g/dL, the MCV stood at 15.4 fL and the Monos is given as 6%. In series [1] (CBC, Day 7), this compound came in with an RBC of 1.39e+07 µL⁻¹, a Segs of 0% and a WBC of 13490 µL⁻¹. Further, the “complete blood count (CBC) analysis, overall” value in series [1] (Day 7) is “abnormalities”. Further, the body weight change entry in series [1] (normal balb/c mice, Day 2, hydrochloride salt) is given as “small degree of body weight loss”. Besides, in series [2] (Day 14, relative to the PBS group), the “tumor growth inhibition (TGI) rate” value stood at 24.84%. The compound further gave a median survival in series [2] (one i.v. dose on Day 0) of 16 days. Further, the “average tumor volume on Day 14” value in series [2] (one i.v. dose on Day 0, 3 mg Dox kg^−1 and/or ˜4×10^6 cells per mouse) is 1328.6 mm^3. The IC50 in series [3] was 1.5 µg/mL.
